Data reported in paper PMC12308784, “Organometallic Half-Sandwich Complexes of 1,10-Phenanthroline Derivatives with Improved Solubility, Albumin-Binding, and Nanoformulation Potential Targeting Drug Resistance in Cancer” (Inorganic Chemistry, 2025).
“And” between values parts separate entries of the source, which are not always exact repeats. Equal entries are not always repeated.

Tests used:
[1] = biological target: T1, HSA Sudlow’s site I (IIA subdomain) (Homo sapiens, UniProt P02768); test: warfarin (WF) site marker displacement on HSA; assay type: binding; conditions: PBS’; t = 25 °C; HSA–WF 1:1, 1.2 μM
T1 construct: purchased Sigma-Aldrich A8763
Method: (§1) To further explore the binding affinity and site specificity of the metal complexes, site marker displacement experiments were conducted using WF and DG, which bind to Sudlow’s site I (in IIA subdomain) and to Sudlow’s site II (in IIIA subdomain), respectively. The displacement of these fluorescence probes directly confirms the interactions of the metal complexes with the respective binding sites. The displacement constants of WF (KWF′) by the metal complexes (Figure c,d, Table ) were correlated with the Trp-214 quenching data.
(§2) Fluorescence measurements were carried out on a Fluoromax (Horiba Jobin Yvon) spectrofluorometer using a 1 cm × 1 cm quartz cuvette in order to assess the interactions of the complexes with HSA in PBS’ medium at 25 °C. The calculated quenching or displacement conditional constants for the HSA-complex species were obtained using the computer program HypSpec. Calculations always were based on data obtained from at least two independent measurements. Self-absorbance and inner filter effect had to be taken into account, and corrections were made as it was described in our former works. ,
(§3) Table S7. Conditions applied for steady -state spectrofluorometric measurements.
(§4) cHSA cMARKER ccomplex λEX λEM slit widths
(§5) (μM) (μM) (μM) (nm) (nm) EX/EM […]
(§6) S.; Deflon, V. M.; Ferreira, A. G.; Cominetti, M. R.; Batista, A. A. Cytotoxicity of Ru(II) Piano-
(§7) Stool Complexes with Chloroquine and Chelating Ligands against Breast and Lung Tumor Cells:
(§8) Interactions with DNA and BSA. J Inorg Biochem 2015, 153, 150–161.
(§9) Van Deun, R.; Van Hecke, K. Antitumor Activity of Organoruthenium Complexes with Chelate

[2] = biological target: T2, HSA Sudlow’s site II (IIIA subdomain) (Homo sapiens, UniProt P02768); test: dansylglycine (DG) site marker displacement on HSA; assay type: binding; conditions: HSA–DG 1:1; PBS’; t = 25 °C
T2 construct: purchased Sigma-Aldrich A8763
Method: as §1, §2, §3, §4, §5, §6, §7, §8, §9

[3] = pKa of the coordinated aqua ligand by UV–vis pH titration; assay type: physicochemical; conditions: [M(arene/arenyl)(ligand)(H2O)]2+; chloride-free; I = 0.2 M KNO3; t = 25 °C
Method: The K a values of the complexes with BP and DCP ligands for the [M(η^6-arene/η^5-arenyl)(ligand)(H2O)]^2+ ⇌ [M(η^6-arene/η^5-arenyl)(ligand)(OH)]^+ + H^+ process also provide valuable insights into their behavior in aqueous solutions. In order to determine the K a values, UV–vis spectra were recorded at different pH values under chloride-free conditions, as shown for the complex RuCymDCP in Figure , and the determined pK a values are presented in Table . […] However, at higher pH values, spectral shifts indicate the onset of aqua ligand deprotonation. For RuCym complexes, the calculated pK a values (Table ) indicate moderate acidity and a higher tendency for deprotonation at physiological pH compared with the RhCp* complexes. […] This lower value is most likely due to the stronger tendency of IrCp*, as well as RuCym, to undergo hydrolysis compared to RhCp*.
An Agilent Cary 8454 diode array spectrophotometer was utilized to obtain UV–vis spectra in the wavelength range 190–1100 nm; the path length was 1 cm. The concentrations of the complexes were between 20 and 100 μM. The actual pH of the samples were measured with an Orion 710A pH-meter equipped with a Metrohm combined electrode (type 6.0234.100) and the pH titrations were performed by a KOH solution using a Metrohm 665 Dosimat buret at 25.0 °C. […] The computer program HypSpec was used to calculate the equilibrium constants.

[4] = biological target: T3, human serum albumin (HSA), Trp-214 in Sudlow’s site I (Homo sapiens, UniProt P02768); test: Trp-214 fluorescence quenching of HSA; assay type: binding; conditions: PBS’; t = 25 °C; 24 h incubation; c HSA = 1.2 μM; RuCym values conditional at 24 h
T3 construct: purchased Sigma-Aldrich A8763
Excerpt: Fluorescence spectroscopy was utilized to elucidate the binding sites on HSA that are targeted by the metal complexes. This investigation concentrated on two key aspects: the quenching of HSA’s intrinsic fluorescence attributed to the sole tryptophan residue (Trp-214) and the displacement of site-specific fluorescent markers warfarin (WF) and dansylglycine (DG). Trp-214 is situated in Sudlow’s site I within the IIA subdomain, rendering it a valuable probe for evaluating interactions at this site. Fluorometric measurements, conducted over a 5 h time frame (see example for RhCp*BP in Figure S19), corroborated the results of UV–vis experiments, the quenching of fluorescence took several hours for the RhCp* complexes, while RuCym compounds had no remarkable effect of Trp-214 fluorescence. Quenching studies were conducted over a 24 h incubation period. This time frame is most probably not enough to reach equilibrium with RuCym complexes; however, this is considered as the upper limit that can be physiologically relevant, as longer incubation times are rendered irrelevant by metabolism and elimination. […] Quenching constants (KQ^′) were computed using HypSpec software. […] It should be noted that quenching constants calculated for the RuCym complexes represent only a temporary state at 24 h of incubation time.
7 Binding interactions of RhCp*BP with HSA analyzed via fluorescence quenching and marker displacement assays. (a) Trp214 fluorescence quenching by RhCp*BP. (b) Measured (dots) and fitted (dashed lines) quenching curves for RhCp*BP, RuCymBP, RhCp*DCP, and RuCymDCP. Fluorescence spectra of the (c) HSA–WF 1:1 and (e) HSA–DG 1:1 systems by the addition of RhCp*BP (dashed lines indicate the free site marker) and the corresponding fluorescence intensity curves at the indicated wavelengths (d,f). The dotted line in figure (d) denotes the fitted intensities. {c HSA = 1.2 μM; c marker = 0 or 1.2 μM PBS’; t = 25 °C}.
as §2, with “works. , […]” for “works. ,”
Table S7. Conditions applied for steady -state spectrofluorometric measurements. cHSA cMARKER ccomplex λEX λEM slit widths […]

T3 sequence (P02768 25-609): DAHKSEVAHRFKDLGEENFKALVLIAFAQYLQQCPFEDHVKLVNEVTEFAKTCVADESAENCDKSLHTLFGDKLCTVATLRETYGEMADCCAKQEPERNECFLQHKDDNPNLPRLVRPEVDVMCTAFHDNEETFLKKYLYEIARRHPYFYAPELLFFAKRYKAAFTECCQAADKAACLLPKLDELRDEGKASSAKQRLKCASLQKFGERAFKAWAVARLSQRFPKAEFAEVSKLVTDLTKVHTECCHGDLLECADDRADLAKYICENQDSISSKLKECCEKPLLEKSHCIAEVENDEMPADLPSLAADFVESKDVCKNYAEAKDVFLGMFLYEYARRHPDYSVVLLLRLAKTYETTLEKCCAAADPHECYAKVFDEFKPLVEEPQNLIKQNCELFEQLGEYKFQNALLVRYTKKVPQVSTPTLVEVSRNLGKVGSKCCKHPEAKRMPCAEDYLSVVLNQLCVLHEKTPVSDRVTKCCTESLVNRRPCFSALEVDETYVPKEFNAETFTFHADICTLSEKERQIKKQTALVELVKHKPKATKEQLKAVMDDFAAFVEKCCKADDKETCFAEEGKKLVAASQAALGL
T1 sequence (P02768 25-609): as above
T2 sequence (P02768 25-609): as above

Row | Compound | logK WF′ (WF displacement constant) [1] | DG displacement / interaction with Sudlow’s site II [2] | pK a [ML(H2O)] [3] | logK Q′ (quenching constant) [4]
1 | Cc1ccc(C(C)C)cc1.[Cl-].[Cl-].[Ru+2].c1ccc(-c2ccnc3c2ccc2c(-c4ccccc4)ccnc23)cc1 [RuCymBP, [Ru(II)(η^6-p-cymene)(bathophenanthroline)Cl]Cl] | 4.4 ± 0.1 | no significant interaction | 7.57 ± 0.06 | 4.3 ± 0.1
2 | [Rh(III)(η^5-C5Me5)(bathophenanthroline)Cl]Cl [RhCp*BP] | 5.6 ± 0.1 | able to displace the DG | 8.81 ± 0.06 | 5.5 and 5.5 ± 0.1
3 | Cc1ccc(C(C)C)cc1.Clc1ccnc2c1ccc1c(Cl)ccnc12.[Cl-].[Cl-].[Ru+2] [RuCymDCP, [Ru(II)(η^6-p-cymene)(4,7-dichloro-1,10-phenanthroline)Cl]Cl] | ≤4.3 | no significant interaction | 7.21 ± 0.06 | ≤3.8
4 | Cc1c(C)c(C)[c-](C)c1C.Clc1ccnc2c1ccc1c(Cl)ccnc12.[Cl-].[Cl-].[Rh+3] [RhCp*DCP, [Rh(III)(η^5-C5Me5)(4,7-dichloro-1,10-phenanthroline)Cl]Cl] | 4.8 ± 0.1 | no significant interaction | 8.33 ± 0.05 | 4.6 and 4.6 ± 0.1
